# US20090270363A1, “2-Aryl- and 2-Heteroarylthiazolyl Compounds, Methods for Their Preparation and Use Thereof” (Wyeth, priority 2008, published 2009)
# How the values were obtained:
# [1] = tested on: HCT116 cells (Securin+/+, securin parental, HCT116 FB); assay: Growth inhibition (sulforhodamine B, 5 days) of securin parental cells; format: cell-based; conditions: Homo sapiens, HCT-116, 120 h, SRB
# [2] = tested on: securin "knock out" cells D8 (Securin-/-); assay: Growth inhibition (sulforhodamine B, 5 days) of securin knock out cells D8; format: cell-based
# [3] = tested on: securin "knock out" cells F3 (Securin-/-); assay: Growth inhibition (sulforhodamine B, 5 days) of securin knock out cells F3; format: cell-based
# [4] = tested on: Xenografts of a Human Breast Carcinoma Cell Line (MDA-MB-361); assay: Tumor xenograft study versus Herceptin (Table 2); format: in vivo
# Experimental: (§1) Selected fused bicyclic 2-aryl- or 2-heteroarylthiazolyl compounds of formula I were tested for their activity in a securin parental cell line (HCT116 FB) and a securin knockout (KO) cell line. […] The in-vivo activity of selected fused bicyclic 2-aryl- or 2-heteroarylthiazolyl compounds of formula I was studied in cells growing as xenografts in athymic (nude) mice. The effect of Examples 164, 166 and 167 was studied in xenografts of a human breast carcinoma cell line (MDA-MB-361).
# (§2) In-vivo Activity in Tumor Xenografts. […] The fused bicyclic 2-arylthiazolyl compounds were formulated using 0.5% Methocel™ (methylcellulose) and 0.4% Tween 80™ (polysorbate-80 and oleic acid) and administered daily orally (PO), by gavage or by syringe. Tumor mass [(length×width^2)/2] was determined every 7 days. Inhibition of tumor growth was calculated relative to conventional (vehicle treated) controls.
# [5] = tested on: Xenografts of a Human Breast Carcinoma Cell Line (MDA-MB-361); assay: Tumor xenograft study versus Vincristine (Table 3); format: in vivo; conditions: days 2 through 21
# Experimental: as §1, §2
# The effectiveness of Examples 164, 166 and 167 versus Vincristine at controlling tumor growth was studied and the results are summarized in Table 3 and FIG. 2.
# [6] = 25 mg/kg/dose IP, days 1, 3, 5 ... 19
# [7] = 25 mg/kg/dose PO, days 1 through 20
smiles,measurement,setting,value
"CN(C)c1ccc(-c2nc3c(s2)[C@H](O)CCC3)cc1 [Example 164, (7R)-2-[4-(dimethylamino)phenyl]-4,5,6,7-tetrahydro-1,3-benzothiazol-7-ol]",IC50,[1],101 µM
same,selectivity ratios (IC50 HCT116 FB/IC50 securin KO),[2],high selectivity ratios
same,IC50,"[2]; 120 h, securin knock out D8 cells, 5 days, SRB",0.81 µM
same,Selectivity Ratio D8,[2]; IC50 HCT116 / IC50 securin KO D8,124
same,IC50,"[3]; 120 h, securin knock out F3 cells, 5 days, SRB",1.3 µM
same,Selectivity Ratio F3,[3]; IC50 HCT116 / IC50 securin KO F3,78
same,% T/C Day 7,[4]; [6],64%
same,% T/C Day 14,[4]; [6],101%
same,% T/C Day 21,[4]; [6],74%
same,Relative Tumor Growth Day 7,[4]; [6],1.23
same,Relative Tumor Growth Day 14,[4]; [6],3.23
same,Relative Tumor Growth Day 21,[4]; [6],8.04
same,S/T = # of Survivors/# of Treated on Day +21,[4]; [6],4/5
same,% T/C Day 7,[4]; [7],81%
same,% T/C Day 14,[4]; [7],115%
same,% T/C Day 21,[4]; [7],117%
same,Relative Tumor Growth Day 7,[4]; [7],1.57
same,Relative Tumor Growth Day 14,[4]; [7],3.68
same,Relative Tumor Growth Day 21,[4]; [7],12.27
same,S/T = # of Survivors/# of Treated on Day +21,[4]; [7],5/5
same,% T/C Day 8,[5]; 25 mg/kg/dose PO,41%
same,% T/C Day 15,[5]; 25 mg/kg/dose PO,37%
same,% T/C Day 22,[5]; 25 mg/kg/dose PO,45%
same,Relative Tumor Growth Day 8,[5]; 25 mg/kg/dose PO,2.17
same,Relative Tumor Growth Day 15,[5]; 25 mg/kg/dose PO,4.64
same,Relative Tumor Growth Day 22,[5]; 25 mg/kg/dose PO,10.02
same,Relative Tumor Growth Day 29,[5]; 25 mg/kg/dose PO,15.52
same,% T/C Day 8,[5]; 50 mg/kg/dose PO,45%
same,Relative Tumor Growth Day 8,[5]; 50 mg/kg/dose PO,2.37
same,Relative Tumor Growth Day 15,[5]; 50 mg/kg/dose PO,Toxic
same,S/T = # of Survivors/# of Treated on Day +36,"[5]; 50 mg/kg/dose PO, * = sacrificed earlier due to tumor size",0/5
